Laboratory results from patent US20230365568A1, “PLK1 POLO BOX DOMAIN INHIBITORS AND METHOD OF TREATING CANCER” (The United States of America,as represented by the …, priority 2020, published 2023).
Where two headings read alike, the source gives them in different places.

How the values were obtained:
[1] = tested on: multiple myeloma-derived L363 cells; assay: MTS cell proliferation assay in L363 cells; type: cell-based; details: Homo sapiens, L-363, 48 h treatment, read-out: Cell efficacy, GI50 ± sd
Description: MTS Assay. […] 96™ AQueous One Solution Cell Proliferation Assay (MTS) kit (Promega, WI). Briefly, asynchronously growing L363 cells cultured in a 96-well plate were treated with the indicated compounds for 48 h.

[2] = biological target: full-length human Plk1 (Homo sapiens (Human), UniProt P53350); assay: ELISA-based Plk1 PBD-binding inhibition assay; details: for IC50: Plk1 PBD, n = 3 unless noted
full-length human Plk1, sequence (P53350 whole entry): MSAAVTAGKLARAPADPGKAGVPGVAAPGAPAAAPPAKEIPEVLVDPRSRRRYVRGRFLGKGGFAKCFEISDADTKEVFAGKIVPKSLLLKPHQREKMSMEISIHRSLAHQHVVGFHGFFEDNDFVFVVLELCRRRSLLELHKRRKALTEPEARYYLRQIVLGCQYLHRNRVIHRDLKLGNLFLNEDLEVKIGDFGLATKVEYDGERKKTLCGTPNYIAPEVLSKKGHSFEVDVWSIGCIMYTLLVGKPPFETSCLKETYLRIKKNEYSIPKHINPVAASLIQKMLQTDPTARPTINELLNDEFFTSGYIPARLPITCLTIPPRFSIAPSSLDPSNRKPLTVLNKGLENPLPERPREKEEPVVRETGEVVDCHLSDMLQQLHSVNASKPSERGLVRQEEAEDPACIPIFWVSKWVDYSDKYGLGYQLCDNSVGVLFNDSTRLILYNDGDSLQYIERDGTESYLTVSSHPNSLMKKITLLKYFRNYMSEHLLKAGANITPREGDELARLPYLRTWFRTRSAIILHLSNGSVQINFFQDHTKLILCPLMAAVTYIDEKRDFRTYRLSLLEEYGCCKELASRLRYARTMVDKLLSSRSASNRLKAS
Description: An ELISA-based PBD-binding inhibition assay was performed essentially as described previously. […] The wells were washed once with PBS+0.05% Tween20 (PBST) and incubated with 200 μl of PBS plus 1% BSA (blocking buffer) for 1 h to prevent non-specific binding. HEK293A lysates expressing HA-EGFP-Plk1 were prepared in a TBSN [20 mM Tris-HCl (pH 8.0), 150 mM NaCl, 0.5% NP-40, 5 mM EGTA, 2 mM MgCl2, 1.5 mM EDTA, and protease inhibitor cocktail (Roche)]+20% DMSO buffer (˜20 μg total lysates in 100 μl buffer), mixed with the indicated amount of the competitors (p-T78 peptide and its derivative compounds) for 30 min, provided onto the biotinylated peptide-coated ELISA wells, and then incubated with constant rocking for 1 h at 25° C. Following the incubation, ELISA plates were washed 5 times with PBST. To detect bound HA-EGFP-Plk1, the plates were probed for 2 h with 100 μl/well of anti-HA antibody at a concentration of 0.5 μg/ml in the blocking buffer and then washed 5 times. The plates were further probed for 1 h with 100 μl/well of HRP-conjugated secondary antibody (GE Healthcare) at a 1:1,000 dilution in the blocking buffer. The plates were washed 5 times with PBST and incubated with 100 μl/well of 3,3′,5,5′-tetramethylbenzidine solution (Sigma-Aldrich, St. Louis, MO) as substrate until a desired absorbance was reached. The reactions were stopped by the addition of 100 μl/well of stop solution (Cell Signaling Technology, Danvers, MA). The optical density (O.D.) was measured at 450 nm by using a Perkin-Elmer Enspire Multimode Plate reader (PerkinElmer, Inc., Boston, MA). Data obtained from more than three independent experiments were analyzed by GraphPad (San Diego, CA) Prism software version 7.
ELISA-based PBD-binding Inhibition Assay. […] The reaction products were measured at 450 nm by using a Perkin-Elmer Enspire Multimode Plate reader (PerkinElmer, Inc., Boston, MA). Data obtained from more than three independent experiments were analyzed by GraphPad (San Diego, CA) Prism software version 7.

[3] = Aqueous solubility; details: aqueous solubility
[4] = Microsomal metabolic stability, rat liver microsomes (RLM); details: rat liver microsomes
[5] = PAMPA permeability

Row | SMILES | GI50 [1] [nM] | IC50 [2] [µM] | Solub. [3] [µg/mL] | t1/2 (min, RLM) [4] [min] | PAMPA [×10⁻⁶ cm/s] | lower IC50 compared to 14 ([2]; ELISA assay) [%] | PAMPA [5] [×10⁻⁶ cm/s]
1 | CCCn1c(=O)c2cccc(F)c2n2c(Sc3c([N+](=O)[O-])ncn3C)nnc12 [73 (NCK167), 9-fluoro-1-((1-methyl-4-nitro-1H-imidazol-5-yl)thio)-4-propyl-[1,2,4]triazolo[4,3-a]quinazolin-5(4H)-one] | 14000 ± 390 | – | – | – | – | – | –
2 | CCCn1c(=O)c2scc(C)c2n2c(Sc3c([N+](=O)[O-])ncn3C)nnc12 [74 (NCK170), 8-methyl-1-((1-methyl-4-nitro-1H-imidazol-5-yl)thio)-4-propylthieno[2,3-e][1,2,4]triazolo[4,3-a]pyrimidin-5(4H)-one] | 25800 ± 260 | – | – | – | – | – | –
3 | CCCn1c(=O)c2sc(C)cc2n2c(Sc3c([N+](=O)[O-])ncn3C)nnc12 [75 (NCK173), 7-methyl-1-((1-methyl-4-nitro-1H-imidazol-5-yl)thio)-4-propylthieno[2,3-e][1,2,4]triazolo[4,3-a]pyrimidin-5(4H)-one] | 4140 ± 310 | – | – | – | – | – | –
4 | C=CCn1c(=O)c2ccccc2n2c(=S)[nH]nc12 [compound 22] | – | 1.31 ± 0.03 | 19.4 | – | – | – | –
5 | CCCCn1c(=O)c2ccccc2n2c(=S)[nH]nc12 [compound 23] | – | 1.03 ± 0.14 | 8.5 | >30 | 77.5 | – | –
6 | CCCCCn1c(=O)c2ccccc2n2c(=S)[nH]nc12 [compound 24] | – | 1.97 ± 0.11 | 4.2 | – | – | – | –
7 | CC(C)CCn1c(=O)c2ccccc2n2c(=S)[nH]nc12 [compound 25] | – | 1.73 ± 0.08 | 8.0 | – | – | – | –
8 | COCCCn1c(=O)c2ccccc2n2c(=S)[nH]nc12 [compound 28] | – | 1.75 ± 0.19 | 31.2 | – | – | – | –
9 | CCOCCCn1c(=O)c2ccccc2n2c(=S)[nH]nc12 [compound 29] | – | 1.68 ± 0.11 | 15.5 | – | – | 29 | –
10 | Cc1cccc(-n2c(=O)c3ccccc3n3c(=S)[nH]nc23)c1C [compound 33] | – | 1.85 ± 0.12 | – | – | – | – | –
11 | CCCn1c(=O)c2ccccc2n2c(=S)n(CC(=O)c3ccccc3)nc12 [compound 39] | – | > 50 | – | – | – | – | –
12 | O=c1c2cc(F)ccc2n2c(=S)[nH]nc2n1CCC1CCC(F)(F)CC1 [compound 93] | – | – | <1 | >30 | 201 | – | –
13 | O=C(O)CCC(=O)NCCCn1c(=O)c2cc(F)ccc2n2c(=S)[nH]nc12 [compound 106] | – | – | >58 | >30 | <1 | – | –
14 | NS(=O)(=O)CCCC(=O)NCCCn1c(=O)c2cc(F)ccc2n2c(=S)[nH]nc12 [compound 107] | – | – | 42.4 | >30 | 3.0 | – | –
15 | O=C(NCCCn1c(=O)c2cc(F)ccc2n2c(=S)[nH]nc12)C1CCCC1 [compound 108] | – | – | >58 | >30 | 155 | – | –
16 | CC(C)(C)OC(=O)NC1CCC(C(=O)NCCCn2c(=O)c3cc(F)ccc3n3c(=S)[nH]nc23)CC1 (centres unmarked) [compound 110] | – | – | >77 | 24.8 | 330 | – | –
17 | CN1CCN(CC(=O)NCCCn2c(=O)c3cc(F)ccc3n3c(=S)[nH]nc23)CC1 [compound 117] | – | – | >64 | >30 | <1 | – | –
18 | O=C(CN1CCOCC1)NCCCn1c(=O)c2cc(F)ccc2n2c(=S)[nH]nc12 [compound 118] | – | – | >62 | >30 | <1 | – | –
19 | O=C(Cc1ccccc1)NCCCn1c(=O)c2cc(F)ccc2n2c(=S)[nH]nc12 [compound 120, N-(3-(7-fluoro-5-oxo-1-thioxo-1,2-dihydro-[1,2,4]triazolo[4,3-a]quinazolin-4(5H)-yl)propyl)-2-phenylacetamide] | – | – | 31.7 | 18.7 | – | – | 248
20 | O=C(Cc1cccc(F)c1)NCCCn1c(=O)c2cc(F)ccc2n2c(=S)[nH]nc12 [compound 122, N-(3-(7-fluoro-5-oxo-1-thioxo-1,2-dihydro-[1,2,4]triazolo[4,3-a]quinazolin-4(5H)-yl)propyl)-2-(3-fluorophenyl)acetamide] | – | – | >63 | 26.5 | – | – | 364
21 | O=C(Cc1cccc(Cl)c1)NCCCn1c(=O)c2cc(F)ccc2n2c(=S)[nH]nc12 [compound 124, 2-(3-chlorophenyl)-N-(3-(7-fluoro-5-oxo-1-thioxo-1,2-dihydro-[1,2,4]triazolo[4,3-a]quinazolin-4(5H)-yl)propyl)acetamide] | – | – | >66 | 8.4 | – | – | 861
22 | O=C(Cc1ccc(Br)cc1)NCCCn1c(=O)c2cc(F)ccc2n2c(=S)[nH]nc12 [compound 125, 2-(4-bromophenyl)-N-(3-(7-fluoro-5-oxo-1-thioxo-1,2-dihydro-[1,2,4]triazolo[4,3-a]quinazolin-4(5H)-yl)propyl)acetamide] | – | – | <1 | 20.6 | – | – | 767
23 | Cc1ccc(CC(=O)NCCCn2c(=O)c3cc(F)ccc3n3c(=S)[nH]nc23)cc1 [compound 126, N-(3-(7-fluoro-5-oxo-1-thioxo-1,2-dihydro-[1,2,4]triazolo[4,3-a]quinazolin-4(5H)-yl)propyl)-2-(p-tolyl)acetamide] | – | – | 12.9 | 23.9 | – | – | 621
24 | COc1ccccc1CC(=O)NCCCn1c(=O)c2cc(F)ccc2n2c(=S)[nH]nc12 [compound 128, N-(3-(7-fluoro-5-oxo-1-thioxo-1,2-dihydro-[1,2,4]triazolo[4,3-a]quinazolin-4(5H)-yl)propyl)-2-(2-methoxyphenyl)acetamide] | – | – | >65 | 16.1 | – | – | 379
25 | O=C(Cc1ccccc1C(F)(F)F)NCCCn1c(=O)c2cc(F)ccc2n2c(=S)[nH]nc12 [compound 131, N-(3-(7-fluoro-5-oxo-1-thioxo-1,2-dihydro-[1,2,4]triazolo[4,3-a]quinazolin-4(5H)-yl)propyl)-2-(2-(trifluoromethyl)phenyl)acetamide] | – | – | 40.3 | 3.7 | – | – | 825
26 | N#Cc1ccccc1CC(=O)NCCCn1c(=O)c2cc(F)ccc2n2c(=S)[nH]nc12 [compound 133, 2-(2-cyanophenyl)-N-(3-(7-fluoro-5-oxo-1-thioxo-1,2-dihydro-[1,2,4]triazolo[4,3-a]quinazolin-4(5H)-yl)propyl)acetamide] | – | – | 20.9 | >30 | – | – | 156
27 | CC(C)(C)OC(=O)Nc1ccc(CC(=O)NCCCn2c(=O)c3cc(F)ccc3n3c(=S)[nH]nc23)cc1 [compound 135, tert-butyl (4-(2-((3-(7-fluoro-5-oxo-1-thioxo-1,2-dihydro-[1,2,4]triazolo[4,3-a]quinazolin-4(5H)-yl)propyl)amino)-2-oxoethyl)phenyl)carbamate] | – | – | 17.4 | >30 | – | – | 910
28 | O=C(Cc1ccccn1)NCCCn1c(=O)c2cc(F)ccc2n2c(=S)[nH]nc12 [compound 136, N-(3-(7-Fluoro-5-oxo-1-thioxo-1,2-dihydro-[1,2,4]triazolo[4,3-a]quinazolin-4(5H)-yl)propyl)-2-(pyridine-2-yl)acetamide] | – | – | 41.4 | >30 | – | – | 68.0
29 | O=C(Cc1cccnc1)NCCCn1c(=O)c2cc(F)ccc2n2c(=S)[nH]nc12 [compound 137, N-(3-(7-Fluoro-5-oxo-1-thioxo-1,2-dihydro-[1,2,4]triazolo[4,3-a]quinazolin-4(5H)-yl)propyl)-2-(pyridine-3-yl)acetamide] | – | – | 31.8 | >30 | – | – | 21.0
30 | O=C(Cc1ccncc1)NCCCn1c(=O)c2cc(F)ccc2n2c(=S)[nH]nc12 [compound 138, N-(3-(7-fluoro-5-oxo-1-thioxo-1,2-dihydro-[1,2,4]triazolo[4,3-a]quinazolin-4(5H)-yl)propyl)-2-(pyridine-4-yl)acetamide] | – | – | 9.6 | >30 | – | – | <1
